# Data published in patent US20180014541A1, “FUNGICIDAL ACTIVE COMPOUND COMBINATIONS” (ARYSTA LIFESCIENCE CORPORATION, priority 2004, published 2018).
# Read-outs that look alike come from different tables or passages of the source.
# Key:
# Coriolus versicolor = experiment: microbe, parasite or virus in culture; conditions: Trametes versicolor, 72 h, read-out: % efficacy
# Pyricularia oryzae [1] = experiment: microbe, parasite or virus in culture; assay type: cell-based; conditions: 72 h, read-out: % efficacy
# Pyricularia oryzae [2] = experiment: microbe, parasite or virus in culture; assay type: cell-based; conditions: 96 h, read-out: % efficacy
# Botrytis cinerea = Botrytis cinerea test (in vitro)/microtiter plates, Example 5; assay type: cell-based; conditions: 72 h, single active compound, spore suspension in PDB, 3 days incubation, ipconazole as commercially available formulation, read-out: % efficacy
# Rhizoctonia solani = Rhizoctonia solani test (in vitro)/microtiter plates, Example 2; conditions: 96 h, read-out: % efficacy
# Pyricularia oryzae [3] = experiment: microbe, parasite or virus in culture; assay type: cell-based; conditions: 120 h, read-out: % efficacy
# Pyricularia oryzae [4] = experiment: microbe, parasite or virus in culture; assay type: cell-based; conditions: 72 h, read-out: % efficacy; remark: listed apart in the source
compound,measurement,setting,value
CC1COC(Cn2cncn2)(c2ccc(Oc3ccc(Cl)cc3)cc2Cl)O1 (centres unmarked) [difenoconazole],Emax at 0.03 ppm,Coriolus versicolor,93%
"COCC(=O)N(c1c(C)cccc1C)[C@H](C)C(=O)OC [mefenoxam, metalaxyl-M]",Emax at 0.3 ppm,Pyricularia oryzae [1],16%
CCCCC(C#N)(Cn1cncn1)c1ccc(Cl)cc1 (centres unmarked) [myclobutanil],Emax at 0.1 ppm,Pyricularia oryzae [2],4%
CC(C)C1CCC(Cc2ccc(Cl)cc2)C1(O)Cn1cncn1 (centres unmarked) [ipconazole],Emax at 0.003 ppm,Botrytis cinerea,3%
CO/N=C(/C1=NOCCO1)c1ccccc1Oc1ncnc(Oc2ccccc2Cl)c1F [fluoxastrobin],Emax at 0.1 ppm,Pyricularia oryzae [2],82%
same,Emax at 0.1 ppm,Rhizoctonia solani,64%
same,Emax at 0.003 ppm,Botrytis cinerea,9%
same,Emax at 0.3 ppm,Pyricularia oryzae [1],84%
same,Emax at 0.3 ppm,Pyricularia oryzae [3],86%
same,Emax at 0.03 ppm,Coriolus versicolor,24%
same,Emax at 0.1 ppm,Pyricularia oryzae [4],80%
O=C(Nc1ccccc1-c1ccc(Cl)cc1)c1cccnc1Cl [boscalid],Emax at 0.1 ppm,Rhizoctonia solani,67%
C=CCNC(=O)c1c([Si](C)(C)C)sc(C)c1C [silthiofam],Emax at 0.1 ppm,Pyricularia oryzae [4],1%
OC(Cn1cncn1)(c1ccc(F)cc1)c1ccccc1F (centres unmarked) [flutriafol],Emax at 0.3 ppm,Pyricularia oryzae [3],6%
